Data on 4 compounds can be found in ChEMBL document CHEMBL1139192, “Novel bis(indolyl)maleimide pyridinophanes that are potent, selective inhibitors of glycogen synthase kinase-3” (Bioorg Med Chem Lett, 2007).

The structures appear in SMILES notation.

Test [1] deals with Tyrosine-protein kinase ABL1 (Homo sapiens) (UniProt P00519). Kind of test: Residual activity of human Abl kinase at 1 uM relative to control.
The target in test [2] is Protein kinase C eta type (Homo sapiens) (UniProt P24723). The experiment in a line: Residual activity of human PKCeta at 1 uM relative to control.
Protein kinase C eta type (Homo sapiens), sequence (P24723 whole entry): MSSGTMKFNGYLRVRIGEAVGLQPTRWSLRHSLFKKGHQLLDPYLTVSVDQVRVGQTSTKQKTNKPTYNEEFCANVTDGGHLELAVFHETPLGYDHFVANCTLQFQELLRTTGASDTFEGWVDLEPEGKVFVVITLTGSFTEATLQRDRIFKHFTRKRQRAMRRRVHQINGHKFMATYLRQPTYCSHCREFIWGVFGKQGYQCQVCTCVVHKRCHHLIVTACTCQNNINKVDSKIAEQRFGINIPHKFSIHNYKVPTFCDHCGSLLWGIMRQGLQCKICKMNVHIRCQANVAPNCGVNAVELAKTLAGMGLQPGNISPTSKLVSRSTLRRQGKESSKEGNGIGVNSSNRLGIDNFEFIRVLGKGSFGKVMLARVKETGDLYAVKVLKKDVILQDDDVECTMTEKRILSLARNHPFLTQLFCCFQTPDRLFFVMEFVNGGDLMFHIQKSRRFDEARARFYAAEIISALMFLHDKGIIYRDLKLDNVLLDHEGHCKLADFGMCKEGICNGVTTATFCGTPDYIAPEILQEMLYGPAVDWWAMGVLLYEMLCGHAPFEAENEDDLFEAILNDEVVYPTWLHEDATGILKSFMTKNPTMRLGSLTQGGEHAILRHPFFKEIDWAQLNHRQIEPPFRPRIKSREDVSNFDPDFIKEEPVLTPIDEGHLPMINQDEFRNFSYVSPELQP
The target in test [3] is T1, Calcium/calmodulin-dependent protein kinase type IV (Homo sapiens) (UniProt Q16566).
T1 sequence (whole entry): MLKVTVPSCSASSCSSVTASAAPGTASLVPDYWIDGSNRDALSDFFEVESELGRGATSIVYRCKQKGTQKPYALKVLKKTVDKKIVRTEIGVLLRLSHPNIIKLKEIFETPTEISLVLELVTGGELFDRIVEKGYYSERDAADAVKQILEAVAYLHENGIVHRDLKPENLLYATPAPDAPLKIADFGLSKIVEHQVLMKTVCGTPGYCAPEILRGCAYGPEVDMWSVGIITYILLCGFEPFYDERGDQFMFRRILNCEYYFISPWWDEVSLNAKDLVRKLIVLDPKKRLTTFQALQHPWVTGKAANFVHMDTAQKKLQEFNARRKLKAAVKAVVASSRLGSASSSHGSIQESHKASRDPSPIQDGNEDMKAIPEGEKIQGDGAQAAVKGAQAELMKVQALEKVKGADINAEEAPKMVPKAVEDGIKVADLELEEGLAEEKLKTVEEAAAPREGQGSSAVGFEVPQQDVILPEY
The experiment in a line: Residual activity of human CaMK4 at 1 uM relative to control.

Test [4] addresses T2, Serine/threonine-protein kinase Chk1 (Homo sapiens) (UniProt O14757).
T2 sequence (whole entry): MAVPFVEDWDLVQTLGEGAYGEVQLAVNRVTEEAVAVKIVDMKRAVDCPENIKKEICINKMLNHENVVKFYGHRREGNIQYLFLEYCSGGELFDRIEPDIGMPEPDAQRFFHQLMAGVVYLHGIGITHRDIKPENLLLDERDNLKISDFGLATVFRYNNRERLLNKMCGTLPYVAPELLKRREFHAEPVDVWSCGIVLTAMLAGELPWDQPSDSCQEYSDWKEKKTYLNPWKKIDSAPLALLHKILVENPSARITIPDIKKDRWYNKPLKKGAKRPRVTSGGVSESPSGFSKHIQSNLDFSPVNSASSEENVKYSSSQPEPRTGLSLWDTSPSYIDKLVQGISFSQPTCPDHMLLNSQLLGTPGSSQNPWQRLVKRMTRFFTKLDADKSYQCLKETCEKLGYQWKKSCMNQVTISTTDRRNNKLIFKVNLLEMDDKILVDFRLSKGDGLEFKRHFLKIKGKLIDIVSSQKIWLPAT
The experiment in a line: Inhibition of human CHK1 at 1 uM relative to control; values are per cent of control.

Test [5] concerns the target Angiopoietin-1 receptor (Homo sapiens) (UniProt Q02763). Kind of test: Residual activity of human Tie2 at 1 uM relative to control.
The target of test [6] is RAF proto-oncogene serine/threonine-protein kinase (Homo sapiens) (UniProt P04049). Kind of test: Residual activity of humna c-RAF at 1 uM relative to control.
RAF proto-oncogene serine/threonine-protein kinase (Homo sapiens), sequence (P04049 whole entry): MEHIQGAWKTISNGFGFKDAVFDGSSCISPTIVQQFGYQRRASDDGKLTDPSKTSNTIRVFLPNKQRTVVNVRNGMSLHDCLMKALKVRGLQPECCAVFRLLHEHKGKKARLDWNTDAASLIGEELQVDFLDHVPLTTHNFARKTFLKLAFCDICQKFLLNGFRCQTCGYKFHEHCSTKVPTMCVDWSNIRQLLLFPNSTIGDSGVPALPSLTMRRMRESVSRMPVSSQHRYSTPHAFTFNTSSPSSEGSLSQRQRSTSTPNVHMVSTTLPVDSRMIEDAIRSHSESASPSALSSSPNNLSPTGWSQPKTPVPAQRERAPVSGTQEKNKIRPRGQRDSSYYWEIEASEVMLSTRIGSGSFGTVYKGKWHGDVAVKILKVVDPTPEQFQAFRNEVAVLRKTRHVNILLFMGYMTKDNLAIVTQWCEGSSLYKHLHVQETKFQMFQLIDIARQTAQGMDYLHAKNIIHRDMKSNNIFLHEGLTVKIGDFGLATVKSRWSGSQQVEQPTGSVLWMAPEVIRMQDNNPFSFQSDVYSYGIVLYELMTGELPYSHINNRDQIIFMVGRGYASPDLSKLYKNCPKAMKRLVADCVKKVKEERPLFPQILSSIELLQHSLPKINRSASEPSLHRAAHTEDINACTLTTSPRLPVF
In test [7] the target is T3, Serine/threonine-protein kinase Nek2 (Homo sapiens) (UniProt P51955).
T3 sequence (whole entry): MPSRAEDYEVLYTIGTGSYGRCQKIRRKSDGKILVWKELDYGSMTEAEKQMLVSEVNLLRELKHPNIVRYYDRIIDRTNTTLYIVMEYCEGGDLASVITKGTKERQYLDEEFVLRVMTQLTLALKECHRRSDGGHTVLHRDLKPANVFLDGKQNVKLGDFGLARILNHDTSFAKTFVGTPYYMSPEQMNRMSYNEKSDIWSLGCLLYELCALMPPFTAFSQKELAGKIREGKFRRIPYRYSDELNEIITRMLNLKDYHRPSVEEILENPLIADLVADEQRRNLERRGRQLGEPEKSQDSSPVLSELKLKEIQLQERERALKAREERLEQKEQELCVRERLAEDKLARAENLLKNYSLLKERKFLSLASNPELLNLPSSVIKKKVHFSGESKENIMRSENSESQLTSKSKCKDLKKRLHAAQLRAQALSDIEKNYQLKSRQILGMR
Kind of test: Inhibition of human NEK2 at 1 uM relative to control; values are per cent of control.

Test [8] addresses Insulin receptor (Homo sapiens) (UniProt P06213). The experiment in a line: Residual activity of human IR at 1 uM relative to control.
In test [9] the target is T4, Inhibitor of nuclear factor kappa-B kinase subunit alpha (Homo sapiens) (UniProt O15111).
T4 sequence (whole entry): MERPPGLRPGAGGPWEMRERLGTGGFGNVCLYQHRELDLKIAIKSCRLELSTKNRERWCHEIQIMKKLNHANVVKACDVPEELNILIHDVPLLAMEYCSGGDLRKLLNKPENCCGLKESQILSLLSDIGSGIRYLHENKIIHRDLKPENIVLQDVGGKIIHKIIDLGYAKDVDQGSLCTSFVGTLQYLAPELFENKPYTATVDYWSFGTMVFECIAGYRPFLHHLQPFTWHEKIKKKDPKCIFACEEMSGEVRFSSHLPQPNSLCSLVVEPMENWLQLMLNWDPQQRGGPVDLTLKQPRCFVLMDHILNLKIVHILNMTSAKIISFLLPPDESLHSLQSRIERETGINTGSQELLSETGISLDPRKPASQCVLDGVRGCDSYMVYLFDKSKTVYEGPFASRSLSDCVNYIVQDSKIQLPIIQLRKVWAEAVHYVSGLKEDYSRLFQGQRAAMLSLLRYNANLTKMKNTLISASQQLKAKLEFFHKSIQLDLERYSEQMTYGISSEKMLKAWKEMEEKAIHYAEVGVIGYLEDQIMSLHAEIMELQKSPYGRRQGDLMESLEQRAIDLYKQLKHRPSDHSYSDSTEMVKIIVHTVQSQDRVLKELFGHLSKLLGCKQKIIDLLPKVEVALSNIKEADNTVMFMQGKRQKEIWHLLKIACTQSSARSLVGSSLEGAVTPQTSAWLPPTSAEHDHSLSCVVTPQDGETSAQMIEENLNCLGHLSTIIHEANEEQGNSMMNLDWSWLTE
Kind of test: Residual activity of human IKKalpha at 1 uM relative to control.

Angiopoietin-1 receptor (Homo sapiens), sequence (Q02763 whole entry): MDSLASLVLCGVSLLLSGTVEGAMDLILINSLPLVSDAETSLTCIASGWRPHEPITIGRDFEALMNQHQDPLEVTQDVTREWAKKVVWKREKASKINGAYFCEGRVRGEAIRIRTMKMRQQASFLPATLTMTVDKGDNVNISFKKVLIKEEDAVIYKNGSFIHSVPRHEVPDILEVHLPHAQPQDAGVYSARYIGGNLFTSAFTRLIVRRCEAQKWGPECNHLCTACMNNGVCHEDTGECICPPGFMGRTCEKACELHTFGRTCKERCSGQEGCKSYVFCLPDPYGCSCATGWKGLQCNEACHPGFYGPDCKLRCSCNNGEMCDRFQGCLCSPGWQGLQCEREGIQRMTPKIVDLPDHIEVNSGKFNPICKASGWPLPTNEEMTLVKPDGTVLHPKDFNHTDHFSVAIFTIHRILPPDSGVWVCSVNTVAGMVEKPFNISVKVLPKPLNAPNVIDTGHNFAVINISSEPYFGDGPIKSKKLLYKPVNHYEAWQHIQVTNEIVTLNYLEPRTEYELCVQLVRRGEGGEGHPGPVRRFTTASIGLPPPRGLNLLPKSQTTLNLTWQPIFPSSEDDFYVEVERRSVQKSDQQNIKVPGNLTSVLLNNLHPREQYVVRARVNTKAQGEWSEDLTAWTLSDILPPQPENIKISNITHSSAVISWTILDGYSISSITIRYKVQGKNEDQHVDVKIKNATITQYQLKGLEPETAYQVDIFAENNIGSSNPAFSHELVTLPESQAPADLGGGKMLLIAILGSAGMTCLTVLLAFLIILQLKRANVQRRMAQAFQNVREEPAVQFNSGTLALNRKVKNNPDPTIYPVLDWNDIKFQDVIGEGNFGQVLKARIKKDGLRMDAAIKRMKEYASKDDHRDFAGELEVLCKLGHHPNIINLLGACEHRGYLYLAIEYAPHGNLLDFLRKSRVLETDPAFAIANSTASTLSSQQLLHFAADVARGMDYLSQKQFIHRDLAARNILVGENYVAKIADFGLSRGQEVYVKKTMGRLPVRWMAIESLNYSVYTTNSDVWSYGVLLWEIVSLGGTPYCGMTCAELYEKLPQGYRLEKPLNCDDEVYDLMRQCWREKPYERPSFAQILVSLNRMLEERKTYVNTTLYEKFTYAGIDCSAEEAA
Tyrosine-protein kinase ABL1 (Homo sapiens), sequence (P00519 whole entry): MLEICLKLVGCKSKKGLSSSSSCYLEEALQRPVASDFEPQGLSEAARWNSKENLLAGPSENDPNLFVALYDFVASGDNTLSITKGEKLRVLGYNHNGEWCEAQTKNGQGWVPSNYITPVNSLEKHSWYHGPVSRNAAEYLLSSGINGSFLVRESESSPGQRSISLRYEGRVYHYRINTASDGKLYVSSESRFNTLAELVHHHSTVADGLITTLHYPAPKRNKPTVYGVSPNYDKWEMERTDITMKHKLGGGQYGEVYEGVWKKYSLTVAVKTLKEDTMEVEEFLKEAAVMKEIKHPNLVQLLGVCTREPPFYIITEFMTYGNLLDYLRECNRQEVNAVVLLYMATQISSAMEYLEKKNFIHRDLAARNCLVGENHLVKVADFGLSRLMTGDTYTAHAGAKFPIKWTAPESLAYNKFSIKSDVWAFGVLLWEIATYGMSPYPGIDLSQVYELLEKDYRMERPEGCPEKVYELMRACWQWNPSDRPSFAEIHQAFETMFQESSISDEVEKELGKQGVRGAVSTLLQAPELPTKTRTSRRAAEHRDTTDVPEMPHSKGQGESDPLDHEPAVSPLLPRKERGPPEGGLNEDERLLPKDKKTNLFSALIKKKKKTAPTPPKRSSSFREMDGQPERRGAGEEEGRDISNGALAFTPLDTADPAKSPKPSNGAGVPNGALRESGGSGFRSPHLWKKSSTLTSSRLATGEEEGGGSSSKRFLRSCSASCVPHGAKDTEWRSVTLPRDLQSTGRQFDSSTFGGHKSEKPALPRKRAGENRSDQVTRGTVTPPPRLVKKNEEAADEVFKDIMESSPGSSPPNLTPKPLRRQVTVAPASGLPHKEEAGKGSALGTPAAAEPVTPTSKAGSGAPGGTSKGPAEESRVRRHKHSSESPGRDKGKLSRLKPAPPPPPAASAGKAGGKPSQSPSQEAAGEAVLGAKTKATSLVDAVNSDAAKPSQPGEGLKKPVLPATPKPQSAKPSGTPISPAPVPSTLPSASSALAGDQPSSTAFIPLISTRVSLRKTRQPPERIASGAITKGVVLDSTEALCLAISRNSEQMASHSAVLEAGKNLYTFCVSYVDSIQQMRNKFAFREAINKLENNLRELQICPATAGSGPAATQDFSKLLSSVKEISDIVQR
Insulin receptor (Homo sapiens), sequence (P06213 whole entry, looked up): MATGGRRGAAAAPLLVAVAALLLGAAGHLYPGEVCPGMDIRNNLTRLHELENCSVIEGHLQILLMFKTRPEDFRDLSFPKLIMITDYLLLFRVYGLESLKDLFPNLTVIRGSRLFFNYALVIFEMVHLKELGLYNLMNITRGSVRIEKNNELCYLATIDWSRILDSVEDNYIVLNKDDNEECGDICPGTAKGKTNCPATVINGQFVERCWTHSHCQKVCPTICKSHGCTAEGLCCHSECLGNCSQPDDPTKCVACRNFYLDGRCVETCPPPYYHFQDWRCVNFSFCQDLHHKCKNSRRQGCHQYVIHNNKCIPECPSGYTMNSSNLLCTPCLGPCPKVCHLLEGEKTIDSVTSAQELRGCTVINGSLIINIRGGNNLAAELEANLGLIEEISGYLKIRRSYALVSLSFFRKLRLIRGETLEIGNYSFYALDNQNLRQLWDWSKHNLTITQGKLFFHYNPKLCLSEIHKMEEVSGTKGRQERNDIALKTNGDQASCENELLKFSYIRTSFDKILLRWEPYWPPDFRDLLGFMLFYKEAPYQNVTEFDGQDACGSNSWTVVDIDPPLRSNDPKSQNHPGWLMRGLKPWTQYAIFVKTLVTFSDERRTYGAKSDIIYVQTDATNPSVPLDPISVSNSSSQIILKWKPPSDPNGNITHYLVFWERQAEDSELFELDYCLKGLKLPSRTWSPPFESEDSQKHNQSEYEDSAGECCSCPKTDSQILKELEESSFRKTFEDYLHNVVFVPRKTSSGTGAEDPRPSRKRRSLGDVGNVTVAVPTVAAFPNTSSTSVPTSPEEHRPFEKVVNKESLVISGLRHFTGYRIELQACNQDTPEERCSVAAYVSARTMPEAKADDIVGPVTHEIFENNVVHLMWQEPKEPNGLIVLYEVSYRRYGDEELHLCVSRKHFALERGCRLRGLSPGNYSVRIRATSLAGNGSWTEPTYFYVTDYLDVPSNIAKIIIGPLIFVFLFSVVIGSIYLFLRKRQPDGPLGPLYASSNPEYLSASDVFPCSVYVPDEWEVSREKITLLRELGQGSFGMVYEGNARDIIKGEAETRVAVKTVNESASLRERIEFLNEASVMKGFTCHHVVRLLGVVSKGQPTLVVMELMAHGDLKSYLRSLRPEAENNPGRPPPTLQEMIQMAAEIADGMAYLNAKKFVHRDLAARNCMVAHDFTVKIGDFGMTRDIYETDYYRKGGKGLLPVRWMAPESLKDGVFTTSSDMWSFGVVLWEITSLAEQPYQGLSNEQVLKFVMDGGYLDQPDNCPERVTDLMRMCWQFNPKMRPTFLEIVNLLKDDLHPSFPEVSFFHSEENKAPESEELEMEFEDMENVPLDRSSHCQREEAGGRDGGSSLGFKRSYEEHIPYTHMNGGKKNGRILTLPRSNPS

In general, residual activity refers to the signal under treatment as a percentage of the control signal. As to `CN(C)c1nc2ccc1CCCn1cc(c3ccccc31)C1=C(C(=O)NC1=O)c1cn(c3ccccc13)CC2`, the residual activity was 105% in test [1]; 104% in [2]; 92% in [3]; 105% in test [4]; 110% in test [5]; 103% in [6]. For the same compound, the residual activity is 104% in test [7], 91% in [8] and 92% in [9].
As for `O=C1NC(=O)C2=C1c1cn(c3ccccc13)CCCc1cc(nc(N3CCCC3)c1)CCCn1cc2c2ccccc21`, the residual activity was determined as 107% in test [1]; 121% in [2]; 112% in test [3]; 110% in test [4]; 96% in [5]; 92% in test [6]. The residual activity in [7] was found to be 105%; in test [8] it was 110%; in test [9] it was 132%.
As for `CN(C)c1cc2cc(n1)CCCn1cc(c3ccccc31)C1=C(C(=O)NC1=O)c1cn(c3ccccc13)CCC2`, the residual activity came to 98% in [1]; 117% in [2]; 113% in [3]; 101% in test [4]; 109% in [5]; 87% in [6]. For the same compound, the residual activity in test [7] was 102%; in test [8], 102%; in [9], 133%.
`O=C1NC(=O)C2=C1c1cn(c3ccccc13)CCCc1ccc(c(N3CCCC3)n1)CCCn1cc2c2ccccc21`: the residual activity in [1] was found to be 108%; in test [2], 90%; in test [3] it was 99%; in test [4], 106%; in test [5], 107%; in test [6], 85%. For the same compound, the residual activity in test [7] is 99%; in [8] it was 87%; in test [9] it was 121%.
